In patent publication US11833137B2, “Substituted chromenones, IRE1 inhibitors, and methods of using same” (The Wistar Institute, priority 2018, dated 2023):
Entries after “also recorded” stand apart in the source; their conditions may differ.

What was measured:
[1] = test system: XBP-1s expression, 5TGM1 cells; assay: XBP-1s immunoblot in 5TGM1 multiple myeloma cells; type: cell-based, mouse
Description: 5TGM1 mouse multiple myeloma cells, primary mouse B cells, primary mouse Eμ-TCL1 CLL cells, and human CLL cell lines (MEC2 and WaC3) were cultured at 37° C. in a 5% CO2 incubator using RPMI 1640 media (Gibco) supplemented with 10% heat-inactivated FBS, 2 mM L-glutamine, 100 U/mL penicillin G sodium, 1 mM sodium pyruvate, 0.1 mM non-essential amino acids, 100 μg/mL streptomycin sulfate and 0.1 mM β-mercaptoethanol (β-ME).
Cells were lysed using RIPA buffer (10 mM Tris-HCl, pH 7.4, 150 mM NaCl, 1% NP-40, 0.5% sodium deoxycholate, 0.1% SDS, and 1 mM EDTA) supplemented with protease inhibitors (Roche). Protein concentrations were determined by BCA assays (Pierce).
Samples were boiled in SDS-PAGE sample buffer (62.5 mM Tris-HCl, pH 6.8, 2% SDS, 10% glycerol, 0.1% bromophenol blue) with β-ME and analyzed by SDS-PAGE. Proteins were transferred to nitrocellulose membranes, blocked in 5% nonfat milk (wt/vol in PBS), and immunoblotted with indicated primary antibodies and appropriate horseradish peroxidase-conjugated secondary antibodies. Immunoblots were developed using Western Lighting Chemiluminescence Reagent (PerkinElmer).
To develop inhibitors with improved potency to target the IRE1/XBP-1 pathway, tricyclic chromenone-based IRE1 RNase inhibitors with different amine group (R^1) were synthesized and compared: allyloxycarbonyl (alloc) in B-H09 (1), —H in C-B06 (2), and —CH3 in C-D06 (3) (FIG. 1A). 5TGM1 multiple myeloma cells were chosen to evaluate inhibitory effects of these inhibitors because they have constitutively activated IRE1/XBP-1 pathways.

[2] = test system: XBP-1s expression, CD5+ CLL cells from Eμ-TCL1 mice; assay: XBP-1s immunoblot in primary CLL cells; type: cell-based, mouse; conditions: LPS-stimulated, 20 μM 16 h, then 0, 50 or 100 μM hydrogen peroxide 4 h
Description: (§1) FIGS. 5A-5J illustrate the finding that installation of a boronate cage cleavable by H2O2 stabilizes the 1,3-dioxane acetal protective group of D-F07 to allow for temporal inhibition of XBP-1s upon contact with H2O2. (FIG. 5A) A scheme showing that installation of a boronate-caged group stabilizes the 1,3-dioxane acetal protective group to allow for H2O2-mediated release of intact D-F07. (FIG. 5B) The fluorescence of BC-D-F07a (2.5 μM in the DMSO/PBS solution (v/v=1:99), Ex=360 nm) increases upon incubation with 0 to 200 μM hydrogen peroxide at room temperature for 1 h. (FIG. 5C) The fluorescence of BC-D-F07b (2.5 μM in the DMSO/PBS solution (v/v=1:99), Ex=360 nm) increases upon incubation with 0 to 2 mM hydrogen peroxide at 37° C. for 1 h. […] I0 was the initial fluorescence intensity of D-F07, BC-D-F07a or BC-D-F07b at 0 h. (FIG. 5E) The levels of hydrogen peroxide produced by 5TGM1, 72-h LPS-stimulated primary CLL, MEC2, and WaC3 cells were measured by Amplex Red with or without the addition of extracellular catalase (500 U/mL). (FIG. 5F) 5TGM1 cells were treated with BC-D-F07a at increasing concentrations for 24 h, lysed, and analyzed for the expression of indicated proteins by immunoblots. […] Cells were lysed and analyzed for the expression of indicated proteins by immunoblots. […] Cells were lysed and analyzed for the expression of indicated proteins by immunoblots. […]

[3] = test system: XBP-1s expression, MEC2 cells; assay: XBP-1s immunoblot in MEC2 cells; type: cell-based, human; conditions: 20 μM 16 h, then hydrogen peroxide 4 h
Description: as §1

[4] = test system: 5TGM1 cells; assay: Cell proliferation XTT assay, 5TGM1; type: cell-based, mouse
Description: 5TGM1 cells were suspended in phenol red-free RPMI media, seeded in 96-well cell culture plates, and treated with indicated IRE1 inhibitors (20 μM, unless indicated otherwise). At indicated time points, cells were spun down and cell proliferation was assessed by XTT assays (Roche) according to the manufacturer's instructions. Briefly, 50 μl XTT labeling reagent, 1 μl electron-coupling reagent, and 100 μl phenol red-free RPMI media were combined and applied to each well of the 96-well plates. Cells were incubated for 4 h in a CO2 incubator to allow for the yellow tetrazolium salt XTT to be cleaved by mitochondrial dehydrogenases of metabolically active cells to form the orange formazan dye, which can be quantified at 492 nm using a BioTek SYNERGY™ NEO2 Multimode Reader.

[5] = test system: MEC2 cells; assay: Cell proliferation XTT assay, MEC2; type: cell-based, human
[6] = Fluorescence stability (decomposition) in aqueous solution; type: physicochemical; conditions: aqueous solution, 37° C., 0 to 48 h, versus D-F07
Description: (FIG. 2B) 5TGM1 cells were treated with DMSO or with 20 μM 2, 4, 3, or 7 dissolved in DMSO for 3 days and subjected to XTT assays. Percentages of growth were determined by comparing treated groups with control groups (DMSO). Each data point derived from four independent groups receiving exactly the same treatment was plotted as mean±SD. Results are representative of three independent experiments. […] The values of I/I0 were plotted as a function of time and shown in the inset. I0 was the initial fluorescence intensity of 4 at 0 h. […] The values of I/I0 were plotted as a function of time and shown in the inset. I0 was the initial fluorescence intensity of 5 at 0 h. […] (FIG. 2G) The decomposition rates of 7 and 8 were plotted as a function of time in RPMI media incubated at 37° C. Aliquots were analyzed by HPLC and the peaks integrated.
FIGS. 5A-5J illustrate the finding that installation of a boronate cage cleavable by H2O2 stabilizes the 1,3-dioxane acetal protective group of D-F07 to allow for temporal inhibition of XBP-1s upon contact with H2O2. (FIG. 5A) A scheme showing that installation of a boronate-caged group stabilizes the 1,3-dioxane acetal protective group to allow for H2O2-mediated release of intact D-F07. (FIG. 5B) The fluorescence of BC-D-F07a (2.5 μM in the DMSO/PBS solution (v/v=1:99), Ex=360 nm) increases upon incubation with 0 to 200 μM hydrogen peroxide at room temperature for 1 h. (FIG. 5C) The fluorescence of BC-D-F07b (2.5 μM in the DMSO/PBS solution (v/v=1:99), Ex=360 nm) increases upon incubation with 0 to 2 mM hydrogen peroxide at 37° C. for 1 h. […] I0 was the initial fluorescence intensity of D-F07, BC-D-F07a or BC-D-F07b at 0 h. (FIG. 5E) The levels of hydrogen peroxide produced by 5TGM1, 72-h LPS-stimulated primary CLL, MEC2, and WaC3 cells were measured by Amplex Red with or without the addition of extracellular catalase (500 U/mL). (FIG. 5F) 5TGM1 cells were treated with BC-D-F07a at increasing concentrations for 24 h, lysed, and analyzed for the expression of indicated proteins by immunoblots. (FIG. 5G) CD5+ CLL cells purified from spleens of Eμ-TCL1 mice were stimulated with […], subsequently treated with BC-D-F07a at 20 μM for 16 h, and then incubated with hydrogen peroxide at indicated concentrations for another 4 h. Cells were lysed and analyzed for the expression of indicated proteins by immunoblots. […] Cells were lysed and analyzed for the expression of indicated proteins by immunoblots. […] Percentages of growth were determined by comparing treated groups with control groups (DMSO). […]
UV-vis and fluorescence spectra were carried out on a BioTek SYNERGY™ NEO2 instrument (96 well plate).

[7] = test system: WaC3 cells; assay: Cell proliferation XTT assay, WaC3; type: cell-based, human; conditions: 20 μM for a course of 3 days
[8] = In vivo pharmacokinetics, serum fluorescence; design: species or system Eμ-TCL1 mouse; conditions: single intraperitoneal injection of 58 mg/kg D-F07
Description: In vivo pharmacokinetics studies were carried out by intraperitoneally injecting 58 mg/kg D-F07 (347.36 Daltons) or 96 mg/kg TC-D-F07 (577.52 Daltons) into each Eμ-TCL1 mouse to achieve equivalent molar concentrations in the sera. Blood was collected via submandibular bleeding into an Eppendorf tube at 0.25-, 0.5-, 1-, and 1.5-h time points after a single injection. Blood samples were stored at room temperature for 5 min, placed on wet ice for 5 min, and centrifuged at 15,000 rpm/min for 5 min to obtain sera. D-F07 in sera was quantified by measuring the fluorescence intensity using a BioTek SYNERGY™ NEO2 Multimode Reader (Ex/Em: 350/456 nm). Each fluorescent reading value was adjusted by subtracting the background from serum samples without D-F07. D-F07 concentrations were calculated by fitting individual data points in a linear standard equation, y=bx+c. The D-F07 standard curve was created by measuring the fluorescence intensity in serum samples containing serially diluted D-F07. Data derived from three mice receiving the same treatment were plotted as means±SEM.

peak serum concentration [8] [ng/mL]	Compound	suppression of XBP-1s ([1]; increasing concentrations, 24 h)	suppression of XBP-1s expression [2]	suppression of XBP-1s [3]	growth suppression (XTT) ([4]; 20 μM for 2 days)	growth inhibition (XTT) ([5]; 20 μM for 2 days)	hydrolysis of 1,3-dioxane acetal by fluorescence decay [6]	suppression of XBP-1s after removal of compound from media ([1]; 10 μM 4 h, washed, UV 10 min, 8 h culture)	suppression of XBP-1s expression, long term ([1]; 10 μM for a course of 3 days)	overall comparison of inhibition of IRE-1 / XBP-1s expression in whole cells ([1]; summary statement)	growth inhibition / cytotoxicity (XTT) ([4]; 20 μM for a course of 3 days)	growth suppression (XTT) [7]	cytotoxicity / growth inhibition (XTT) ([5]; indicated concentrations, 24 h)
	COc1cc2c3c(c(=O)oc2c(C2OCCCO2)c1OCc1ccc(B2OC(C)(C)C(C)(C)O2)cc1)CN(C)CC3 [BC-D-F07a, 7-(1,3-dioxan-2-yl)-9-methoxy-3-methyl-8-((4-(4,4,5,5-tetramethyl-1,3,2-dioxaborolan-2-yl)benzyl)oxy)-1,2,3,4-tetrahydro-5H-chromeno[3,4-c]pyridin-5-one]	dose-dependent suppression of XBP-1s	suppress the expression of XBP-1s	more efficient suppression of XBP-1s	could not efficiently oxidize BC-D-F07a, inhibit XBP-1s, or suppress cell growth	less capable than D-F07 in inhibiting growth of MEC2 cells	stabilized the 1,3-dioxane acetal protecting group						
10203	COc1cc2c3c(c(=O)oc2c(C2OCCCO2)c1O)CN(C)CC3 [D-F07, 7-(1,3-dioxan-2-yl)-8-hydroxy-9-methoxy-3-methyl-1,2,3,4-tetrahydro-5H-chromeno[3,4-c]pyridin-5-one]							failed to suppress XBP-1s continuously	better long-term efficacy in suppressing the expression of XBP-1s than 7 and 10	most potent effect in inhibiting the expression of XBP-1s in whole cells	higher cytotoxicity than 3 and 7	initially more potent than 7 and 8 in suppressing WaC3 cell growth; also recorded: suppressed WaC3 cell growth potently	not cytotoxic to MEC2 cells
